Where two headings read alike, the source gives them in different places.
What was measured:
monomeric heme = assay: Heme affinity measurement, monomeric heme; type: binding; conditions: acidic 40% DMSO
Protocol: To test whether binding to Hz precursors is also altered for the 4S and 4O derivatives, binding constants were measured as previously described for both μ-oxo dimeric and monomeric heme (FIG. 25). […] J. Am. Chem. Soc. 1988, 110, 4391-4395; Egan, T. J.; Mavuso, W. W.; Ross, D. C.; Marques, H. M. Thermodynamic factors controlling the interaction of quinoline antimalarial drugs with ferriprotoporphyrin IX. J. Inorg. Biochem. 1997, 68, 137-145; and Egan, T. J.; Ncokazi, K. K. Effects of solvent composition and ionic strength on the interaction of quinoline antimalarials with ferriprotoporphyrin IX. J. Inorg. Biochem. 2004, 98, 144-152. Due to the instability of monomeric heme in aqueous solution, the affinity to monomer measured by conventional absorbance experiments can only be estimated using 40% DMSO in water as solvent. Egan, T. J.; Ncokazi, K. K. Effects of solvent composition and ionic strength on the interaction of quinoline antimalarials with ferriprotoporphyrin IX. J. Inorg. Biochem. 2004, 98, 144-152. At appropriately acidic solution pH (≦5.0) FPIX heme is primarily monomeric, whereas at pH 7, appreciable dimer is formed. As shown (FIG. 25), CQ and compounds 88, 93, and 98 all have poor affinity for monomeric heme in acidic 40% DMSO. To further test if CQ interacts with monomeric heme, T1 measurements of the CQ protons were made with samples containing 10 mM CQ and 2 mM hemin chloride in 40% DMSO at pH 5.0. Although the lines are broadened in this solution due to paramagnetic susceptibility, the measured T1's indicate only weak paramagnetic relaxation. For example, the measured T1 for CQ proton 1 in this sample is 0.70 s, whereas at pH 7.0 the T1 for the same proton is 0.039 s.
To measure affinity for monomeric heme, 1.2 mM stock solutions of hemin (sodium salt from Sigma-Aldrich) were prepared in DMSO and stored as […] aliquots. 4.8 μM working solutions were prepared in 40% DMSO/phosphate buffer (fresh stocks prepared daily). Stock solutions of CQ and CQ analogues (diphosphate or dihydrochloride salts) were prepared in 40% DMSO/phosphate buffer and used for the titration experiments (all drugs dilutions were prepared in the same buffer).
1.5 mL cuvettes containing freshly prepared samples of 4.8 μM heme were titrated with increasing concentrations (0-50 μM) of drug. Following each addition, the sample was mixed and heme absorbance then recorded at 402 nm. Control experiments were performed by titrating 4.8 μM heme with similar volumes of solvent and no drug present. […] The absorbance peak analysis was done using Microsoft excel and Ka were extracted from the ΔAbs402 plots via Scatchard analysis using Microsoft Excel and Sigma plot 9.0.1 software.

[1] = system: Dd2 (chloroquine resistant strain of P. falciparum); assay: SYBR Green I antiplasmodial assay, strain Dd2; type: cell-based, Plasmodium falciparum
Excerpt: (§1) Bennett T. N.; Paguio, M.; Gligorijevic, B.; Seudieu, C.; Kosar, A. D.; Davidson, E.; Roepe, P. D. Novel, rapid, and inexpensive cell-based quantification of antimalarial drug efficacy. Antimicrob. Agents Chemother. 2004, 48, 1807-1810; Smilkstein, M.; Sriwilaijaroen, N.; Kelly, J. X.; Wilairat, P.; Riscoe, M. Simple and inexpensive fluorescence-based technique for high-throughput antimalarial drug screening. Antimicrob. Agents Chemother. 2004, 48, 1803-1806; and Johnson, J. D.; Dennull, R. A.; Gerena, L.; Lopez-Sanchez, M.; Roncal, N. E.; Waters, N.C. Assessment and continued validation of the malaria SYBR green I-based fluorescence assay for use in malaria drug screening. Antimicrob. Agents Chemother. 2007, 51, 1926-1933. […] Drake, N. L.; Creech, H. J.; Garman, J. A.; Haywood, S. T.; Peck, R. M.; van Hook, J. O.; Walton, E. Synthetic antimalrials. The preparation of certain 4-aminoquinolines. J. Am. Chem. Soc. […] Trans. R. Soc. Trop. Med. Hyg. […] J. Parasitol. 1983, 69, 97-105. The selectivity index provides a quantitative measure of the antimalarial activity against CQR strains relative to that against sensitive strains and thus indicates promising drug discovery leads. […] This can be combined with the introduction of a third basic amino function which should further favor accumulation of the drug within the acidic food vacuole of the parasite.
The antiplasmodial activity of these compounds was measured versus a CQS (HB3) and a CQR (Dd2) strain using a standardized, inexpensive assay based on SYBR Green I intercalation. Bennett T. N.; Paguio, M.; Gligorijevic, B.; Seudieu, C.; Kosar, A. D.; Davidson, E.; Roepe, P. D. Antimicrob. Agents Chemother. 2004, 48, 1807-1810; Smilkstein, M.; Sriwilaijaroen, N.; Kelly, J. X.; Wilairat, P.; Riscoe, M. Antimicrob. Agents Chemother. 2004, 48, 1803-1806; and Johnson, J. D.; Dennull, R. A.; Gerena, L.; Lopez-Sanchez, M.; Roncal, N. E.; Waters, N.C. Antimicrob. Agents Chemother. 2007, 51, 1926-1933. […] De, D.; Krogstad, F. M.; Cogswell, F. B.; Krogstad, D. J. Am. J. Trop. Med. Hyg. 1996, 55, 579-583. […] The basic tertiary amino function in the side chain is commonly believed to be crucial for the accumulation of the drug within the acidic food DV.
(§2) Drug activities were assessed and IC50 were quantified essentially as described previously. Delarue, S.; Girault, S.; Maes, L.; Debreu-Fontaine, M. A.; Labaeid, M.; Grellier, P.; Sergheraert, C. Synthesis and in vitro and in vivo antimalarial activity of new 4-anilinoquinolines. J. Med. Chem. 2001, 44, 2827-2833; and O'Neill, P. M.; Willock, D. J.; Hawley, S. R.; Bray, P. G.; Storr, R. C.; Ward, S. A.; Park, B. K. Synthesis, antimalarial activity, and molecular modeling of tebuquine analogues. J. Med. Chem. 1997, 40, 437-448. The aminoquinolines were diluted using complete media under sterile conditions and plated in a 96 well plate format. Sorbitol synchronized cultures were utilized with >95% of the parasites at the ring stage. Cultures were diluted to give a working stock of 0.5% parasitemia and 2% hematocrit (final hematocrit 1% & 0.5% Parasitemia). The plates were incubated for 72 h at 37° C. After 72 h, 50 μL of 10×SYBR green I dye was added to each well, and the plate was incubated for 1 h at 37° C. Fluorescence was measured at 530 nm (490 nm excitation) using a spectra geminiEM plate reader. Data analysis was performed using sigma plot 9.0 software after downloading data in Excel format.

[2] = system: FCB (CQR strain of P. falciparum); assay: SYBR Green I antiplasmodial assay, strain FCB; type: cell-based, Plasmodium falciparum; conditions: Plasmodium falciparum, read-out: IC50 for FCB
Excerpt: as §1, §2

[3] = system: HB3 (chloroquine sensitive strain of P. falciparum); assay: SYBR Green I antiplasmodial assay, strain HB3; type: cell-based, Plasmodium falciparum; conditions: CQS strain HB3; read-out: IC50 against HB3
Excerpt: Bennett T. N.; Paguio, M.; Gligorijevic, B.; Seudieu, C.; Kosar, A. D.; Davidson, E.; Roepe, P. D. Novel, rapid, and inexpensive cell-based quantification of antimalarial drug efficacy. Antimicrob. Agents Chemother. 2004, 48, 1807-1810; Smilkstein, M.; Sriwilaijaroen, N.; Kelly, J. X.; Wilairat, P.; Riscoe, M. Simple and inexpensive fluorescence-based technique for high-throughput antimalarial drug screening. Antimicrob. Agents Chemother. 2004, 48, 1803-1806; and Johnson, J. D.; Dennull, R. A.; Gerena, L.; Lopez-Sanchez, M.; Roncal, N. E.; Waters, N.C. Assessment and continued validation of the malaria SYBR green I-based fluorescence assay for use in malaria drug screening. Antimicrob. Agents Chemother. 2007, 51, 1926-1933. […] The selectivity index provides a quantitative measure of the antimalarial activity against CQR strains relative to that against sensitive strains and thus indicates promising drug discovery leads. […]
The antiplasmodial activity of these compounds was measured versus a CQS (HB3) and a CQR (Dd2) strain using a standardized, inexpensive assay based on SYBR Green I intercalation. […]
Drug activities were assessed and IC50 were quantified essentially as described previously. […] Fluorescence was measured at 530 nm (490 nm excitation) using a spectra geminiEM plate reader. […]

μ-oxo dimeric heme = assay: Heme affinity measurement, μ-oxo dimeric heme; type: binding; conditions: aqueous solution
Protocol: 1.5 mL cuvettes containing freshly prepared samples of 4.8 μM heme were titrated with increasing concentrations (0-50 μM) of drug. Following each addition, the sample was mixed and heme absorbance then recorded at 402 nm. Control experiments were performed by titrating 4.8 μM heme with similar volumes of solvent and no drug present. To measure affinity for μ-oxo dimeric heme, the procedure was similar except hemin was first converted to dimeric form in mild alkaline solution, followed by titration to pH 7.5 using Hepes buffer. The absorbance peak analysis was done using Microsoft excel and Ka were extracted from the ΔAbs402 plots via Scatchard analysis using Microsoft Excel and Sigma plot 9.0.1 software.

[4] = pKa determination by acid/base titration; type: physicochemical; conditions: distilled water; measured; read-out: quinolyl N pKa
Protocol: SPARC pKa calculator is an online tool developed at the University of Georgia by S. W. Karickhoff, L. A. Carreira and S. H. Hilal. Experimental pKa were determined using an Accumet AB15 pH meter and a calomel electrode. 10 mM solutions of the drugs (as dibasic salts) were made in distilled H2O and titrated at room temperature (23.0±2.0° C.) using 0.1 M NaOH. Titration plots were generated and pKa's extracted via inflection points from the second derivative plots; (Δ^2pH/ΔV^2) vs. V, where V represents the volume of the titrant added and ΔV is the volume increment.

hemozoin (Hz) formation = assay: Quantification of in vitro Hz formation inhibition; type: biochemical
Protocol: A stock solution of 5 mM hemin (Fluka) in 0.1M NaOH was prepared and stored as small aliquots at -20° C. Fresh aliquots were thawed daily to room temperature before use. Lecithin stock solutions were prepared by dissolving in distilled water to 10 mg/ml and similarly stored. 0.5 M propionate was used to buffer experiments in the pH range 5.2-5.6. The assay mixture (1 mL volumes) contained: 200 μL lecithin solution ([…] final) 20 μL hematin (100 μM final concentration) 20 μ[…] propionate buffer (X) μL drug (dependant on the concentration required 0-1000 μM). The addition sequence involved first adding the lecithin followed by heme, HCl, propionate buffer and finally the drug. Each sample was prepared in triplicate. Following addition of the reagents the samples were incubated at 37° C. with constant shaking for 18 h. After 18 h the assay was stopped by spinning the samples at 13,200 rpm for 10 minutes followed by carefully aspirating off the supernatant. The pellet was then resuspended in 50 mM bicarbonate buffer pH 9.0 (1 mL) and gently shaken at room temperature for 30 minutes to dissolve uncrystallized heme. The samples were then centrifuged as above and the supernatant removed. […] The samples were then dissolved in 0.1M NaOH to solubilize β-hematin to free heme and β-hematin formed was then quantified via heme absorbance at 402 nm. Calibration curves were prepared by titrating increasing amounts of heme in the same solvent vs. absorbance at 402 nm.

[5] = system: CQS (HB3, GCO3) and CQR (Dd2, FCB) strains of P. falciparum; assay: SYBR Green I antiplasmodial assay, several CQS and CQR strains; type: cell-based, Plasmodium falciparum
Excerpt: as §1
Bennett T. N.; Paguio, M.; Gligorijevic, B.; Seudieu, C.; Kosar, A. D.; Davidson, E.; Roepe, P. D. Novel, rapid, and inexpensive cell-based quantification of antimalarial drug efficacy. Antimicrob. Agents Chemother. 2004, 48, 1807-1810; Smilkstein, M.; Sriwilaijaroen, N.; Kelly, J. X.; Wilairat, P.; Riscoe, M. Simple and inexpensive fluorescence-based technique for high-throughput antimalarial drug screening. Antimicrob. Agents Chemother. 2004, 48, 1803-1806; and Johnson, J. D.; Dennull, R. A.; Gerena, L.; Lopez-Sanchez, M.; Roncal, N. E.; Waters, N.C. Assessment and continued validation of the malaria SYBR green I-based fluorescence assay for use in malaria drug screening. Antimicrob. Agents Chemother. 2007, 51, 1926-1933.
Drug activities were assessed and IC50 were quantified essentially as described previously. Delarue, S.; Girault, S.; Maes, L.; Debreu-Fontaine, M. A.; Labaeid, M.; Grellier, P.; Sergheraert, C. Synthesis and in vitro and in vivo antimalarial activity of new 4-anilinoquinolines. J. Med. Chem. 2001, 44, 2827-2833; and O'Neill, P. M.; Willock, D. J.; Hawley, S. R.; Bray, P. G.; Storr, R. C.; Ward, S. A.; Park, B. K. Synthesis, antimalarial activity, and molecular modeling of tebuquine analogues. J. Med. Chem. 1997, 40, 437-448.

CCN(CC)CCCC(C)Nc1ccnc2cc(Cl)ccc12 (stereo not drawn) [CQ, chloroquine, reference compound]
affinity for monomeric heme (monomeric heme): poor affinity | IC50 ([1]; Plasmodium falciparum, DD2, read-out: IC50 against Dd2): 140 nM | IC50 [2]: 170 nM

CCN(CCNc1ccnc2cc(Cl)ccc12)CCNS(=O)(=O)c1cccc2c(N(C)C)cccc12 [compound 23]
IC50 ([1]; CQR strain Dd2, read-out: IC50 against Dd2): 22.7 nM | activity against the CQ resistant strain Dd2 in comparison with CQ ([1]; compared with CQ): significantly more potent | IC50 [3]: 17.5 nM

CCN(CC)CCCCNc1ccnc2cc(Cl)ccc12 [compound 88, N-(7-Chloro-4-quinolyl)-N′,N′-diethyl-1,4-diaminobutane]
affinity for monomeric heme (monomeric heme): poor affinity | affinity (association constant Ka) vs. μ-oxo dimer (μ-oxo dimeric heme): quite similar

CCN(CC)CCCCSc1ccnc2cc(Cl)ccc12 [compound 98, S-(7-Chloro-4-quinolyl)-4-(N,N-diethylamino)butanethiol]
affinity for monomeric heme (monomeric heme): poor affinity | affinity (association constant Ka) vs. μ-oxo dimer (μ-oxo dimeric heme): quite similar | pKa [4]: 4.1 | ability to inhibit Hz formation vs. that measured for CQ and 8 (hemozoin (Hz) formation; FIG. 26): significantly lower

CCN(CC)CCCC(CCCN(CC)CC)Oc1ccnc2cc(Cl)ccc12 [compound 102, 7-Chloro-4-(1′,7′-bis(diethylamino)-4′-heptoxy)quinoline]
activity vs. both CQR and CQS strains relative to 93 ([5]; FIG. 23): improved activity | fold lower IC50 relative to 98 ([5]; strains Dd2 and FCB): 10 fold | inhibition of Hz formation relative to monobasic 4O derivative 13 (hemozoin (Hz) formation): more potent inhibitor of Hz formation

Reference: patent publication US20110045100A1, “Antimalarial Quinolines and Methods of Use Thereof” (GEORGETOWN UNIVERSITY, priority 2008, published 2011)
